{"source": "patent US20220273196A1", "about": "“INGESTIBLE DEVICE AND ASSOCIATED METHODS” (Biora Therapeutics, Inc., priority 2017, published 2022)", "key": {"[1]": {"experiment": "Dissolving drug pills or powder in water for spectroscopy samples", "type": "physicochemical", "settings": "pills or powder (Sigma A5000) in water, 0.1-10% (w/v) samples", "excerpt": "Other test samples included anti-inflammatory drugs, e.g., Ibuprofen and Acetaminophen, dissolved in water. Yet other test samples included microcrystalline cellulose, which can be one primary filler material in anti-inflammatory drugs, dissolved in water. […] The Ibuprofen, Acetaminophen and microcrystalline cellulose samples held by the well plate 700B were used to perform spectroscopy of Ibuprofen, Acetaminophen and microcrystalline cellulose in reflectance mode using Benchtop spectrometers #5, #2 and #3. Further, the Ibuprofen and Acetaminophen samples were siphoned from the well plate 700B and combined into a few cuvettes. […] These Ibuprofen and Acetaminophen samples held by the cuvettes were used to perform spectroscopy of Ibuprofen and Acetaminophen in transmission mode using Benchtop spectrometers #4, #5, #2 and #3.\nSome test samples included solutions of Ibuprofen having various concentrations. Ibuprofen powder (Sigma 11892) was dissolved in water directly in cuvettes having an optical path thickness of 10 mm. These solutions had Ibuprofen concentrations varying in the range of 0.1-10% (w/v). Other test samples included solutions of Acetaminophen having various concentrations. Acetaminophen powder (Sigma A5000) was dissolved in water directly in cuvettes having an optical path thickness of 10 mm. […]"}, "cyclophilin": {"target": "cyclophilin (Homo sapiens, UniProt P62937)", "sequence (P62937 whole entry)": "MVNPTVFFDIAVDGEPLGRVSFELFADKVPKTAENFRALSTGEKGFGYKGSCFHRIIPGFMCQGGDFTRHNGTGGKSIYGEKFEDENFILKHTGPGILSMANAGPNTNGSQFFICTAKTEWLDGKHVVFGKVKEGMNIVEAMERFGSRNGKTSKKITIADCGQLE", "settings": "cited from earlier work"}, "[2]": {"system": "murine models of inflammatory bowel disease (IBD)", "settings": "numerous murine models; cited from earlier work"}}, "note": "Entries after “also recorded” stand apart in the source; their conditions may differ.", "data": [{"molecule": "CC(=O)Nc1ccc(O)cc1", "note": "[Acetaminophen]", "values": [{"measurement": "solubility in water", "setting": "[1]", "value": "limited solubility in water; also recorded: poor solubility"}]}, {"molecule": "C=C/C=C/C[C@@H](C)[C@@H](O)[C@H]1C(=O)N[C@@H](CC)C(=O)N(C)CC(=O)N(C)[C@@H](CC(C)C)C(=O)N[C@@H](C(C)C)C(=O)N(C)[C@@H](CC(C)C)C(=O)N[C@@H](C)C(=O)N[C@H](C)C(=O)N(C)[C@@H](CC(C)C)C(=O)N(C)[C@@H](CC(C)C)C(=O)N(C)[C@@H](C(C)C)C(=O)N1C", "note": "[voclosporin]", "values": [{"measurement": "binding affinity for cyclophilin relative to cyclosporine A", "setting": "cyclophilin", "value": "comparable"}]}, {"molecule": "L-glutamic acid polymer with L-alanine, L-lysine and L-tyrosine, acetate (salt) [Glatiramer acetate]", "values": [{"measurement": "effect on inflammation and pathological manifestations of IBD", "setting": "[2]", "value": "reduce inflammation and ameliorate the pathological manifestations"}]}]}
